# Test results reported in patent publication US8722849B2, “Polypeptides” (Novo Nordisk A/S, priority 2011, dated 2014).
# Like-named read-outs stand apart in the source and are kept apart here. Starred links: 1 amine or outer side, 2 acyl side, 3 side chain; linkers in the order of their positions; H or OH if unused. Positions of bridges follow the written chain, without caps; N, C: chain ends. Residues, ends and D or L forms follow the SMILES beside them. *: point of attachment. C20 diacid = O=C(O)CCCCCCCCCCCCCCCCCCC(=O)*; C18 diacid = O=C(O)CCCCCCCCCCCCCCCCC(=O)*; γGlu = O=C(O)[C@H](CCC(=O)[*:2])N[*:1]
# Tests used:
# [1] = Assay (III) ThT fibrillation assay for physical stability; type: physicochemical
# Outline: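 Freshly prepared formulations, pH-adjusted, with 1 μM ThT; four or eight replicates incubated at 37 °C under 960 rpm orbital shaking. Fluorescence (ex 444/em 485 nm) read every 20 min; […]. Peptide concentration measured by RP-HPLC before and after the run.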
# [2] = Assay (IV) determination of solubility; type: physicochemical
# Outline: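 Eight 100 mM buffers (glycylglycine pH 3.0–5.0, bistrispropane pH 6.0–8.0) each received an equal volume of polypeptide dissolved in water at ~500 nmol/ml. Soluble polypeptide was measured by HPLC following 18 hours at room temperature and centrifugation.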
# [3] = bistrispropane buffer, pH 6, pH 6.0, read-out: Solubility pH 6.0
# [4] = bistrispropane buffer, pH 6.5, pH 6.5, read-out: Solubility pH 6.5
# [5] = bistrispropane buffer, pH 7, pH 7.0, 18 hours at room temperature, Table 3, read-out: Solubility pH 7.0
# [6] = bistrispropane buffer, pH 7, pH 7.0, read-out: Solubility pH 7.0
# [7] = bistrispropane buffer, pH 7.5, pH 7.5, read-out: Solubility pH 7.5
# [8] = bistrispropane buffer, pH 8, pH 8.0, read-out: Solubility pH 8.0
# [9] = glycylglycine buffer, pH 3, pH 3.0, read-out: Solubility pH 3.0
# [10] = glycylglycine buffer, pH 4, pH 4.0, 18 hours at room temperature, Table 2, read-out: Solubility pH 4.0
# [11] = glycylglycine buffer, pH 4, pH 4.0, read-out: Solubility pH 4.0
# [12] = glycylglycine buffer, pH 5, pH 5.0, read-out: Solubility pH 5.0
# [13] = bistrispropane buffer, pH 7, pH 7.0, Table 8, read-out: Solubility pH 7.0
# [14] = bistrispropane buffer, pH 7, pH 7.0, Table 9, read-out: Solubility pH 7.0
# [15] = bistrispropane buffer, pH 7.5, pH 7.5, Table 9, read-out: Solubility pH 7.5
SMILES,ThT pH 4.0 lag time (h) ([1]; ThT fibrillation assay),"solubility at 18 h [2, 3] [µM]","solubility at 18 h [2, 4] [µM]","solubility at 18 h [2, 5] [µM]","solubility at 18 h [2, 6] [µM]","solubility at 18 h [2, 7] [µM]","solubility at 18 h [2, 8] [µM]","solubility at 18 h [2, 9] [µM]","solubility at 18 h [2, 10] [µM]","solubility at 18 h [2, 11] [µM]","solubility at 18 h [2, 12] [µM]",ThT pH 4.0 lag time ([1]; Table 8) [h],ThT pH 4.0 lag time ([1]; Table 9) [h],ThT pH 4.0 lag time ([1]; ThT fibrillation assay) [h],"solubility at 18 h [2, 13] [µM]","solubility at 18 h [2, 14] [µM]","solubility at 18 h [2, 15] [µM]"
"CC[C@H](C)[C@H](NC(=O)[C@@H]1CCCN1C(=O)CNC(=O)[C@H](Cc1ccccc1)NC(=O)[C@H](CC(N)=O)NC(=O)[C@H](CC(N)=O)NC(=O)[C@H](CO)NC(=O)[C@H](CO)NC(=O)[C@H](Cc1c[nH]cn1)NC(=O)[C@H](Cc1c[nH]cn1)NC(=O)[C@H](CC(C)C)NC(=O)[C@H](Cc1ccccc1)NC(=O)[C@H](CCC(=O)O)NC(=O)[C@H](C)NC(=O)[C@H](CC(C)C)NC(=O)[C@H](CCCNC(=N)N)NC(=O)[C@H](CCC(N)=O)NC(=O)[C@@H](NC(=O)[C@H](C)NC(=O)[C@@H]1CSSC[C@H](NC(=O)[C@H](CCCCN)NC(=O)[C@H](CCC(=O)O)NC(=O)CC[C@H](NC(=O)CCCCCCCCCCCCCCCCCCC(=O)O)C(=O)O)C(=O)N[C@@H](CC(N)=O)C(=O)N[C@@H]([C@@H](C)O)C(=O)N[C@@H](C)C(=O)N[C@@H]([C@@H](C)O)C(=O)N1)[C@@H](C)O)C(=O)N[C@@H](CC(C)C)C(=O)N1CCC[C@H]1C(=O)N1CCC[C@H]1C(=O)N[C@H](C(=O)N[C@@H](CC(N)=O)C(=O)N[C@H](C(=O)NCC(=O)N[C@@H](CO)C(=O)N[C@@H](Cc1c[nH]cn1)C(=O)N[C@H](C(=O)N[C@@H](Cc1ccc(O)cc1)C(N)=O)[C@@H](C)O)C(C)C)[C@@H](C)O [Example 56, N-alpha-[(S)-4-Carboxy-4-(19-carboxynonadecanoylamino)butyryl]-Glu-[Glu14,His17,His35]-pramlintide] ({C20 diacid-γGlu}-EKCNTATCATQRLAEFLHHSSNNFGPILPPTNVGSHTY-NH2; disulfide 3-8 (inferred))",16,> 200,> 200,> 200,> 200,> 200,> 200,> 200,> 200,> 200,> 200,,,,,,
"CC[C@H](C)[C@H](NC(=O)[C@@H]1CCCN1C(=O)CNC(=O)[C@H](Cc1ccccc1)NC(=O)[C@H](CC(N)=O)NC(=O)[C@H](CC(N)=O)NC(=O)[C@H](CO)NC(=O)[C@H](CO)NC(=O)[C@H](Cc1c[nH]cn1)NC(=O)[C@H](CCCNC(=N)N)NC(=O)[C@H](CC(C)C)NC(=O)[C@H](Cc1ccccc1)NC(=O)[C@H](CCC(=O)O)NC(=O)[C@H](C)NC(=O)[C@H](CC(C)C)NC(=O)[C@H](CCCNC(=N)N)NC(=O)[C@H](CCC(N)=O)NC(=O)[C@@H](NC(=O)[C@H](C)NC(=O)[C@@H]1CSSC[C@H](NC(=O)[C@H](CCCCN)NC(=O)[C@H](CCC(=O)O)NC(=O)CC[C@H](NC(=O)CCCCCCCCCCCCCCCCCCC(=O)O)C(=O)O)C(=O)N[C@@H](CC(N)=O)C(=O)N[C@@H]([C@@H](C)O)C(=O)N[C@@H](C)C(=O)N[C@@H]([C@@H](C)O)C(=O)N1)[C@@H](C)O)C(=O)N[C@@H](CC(C)C)C(=O)N1CCC[C@H]1C(=O)N1CCC[C@H]1C(=O)N[C@H](C(=O)N[C@@H](CC(N)=O)C(=O)N[C@H](C(=O)NCC(=O)N[C@@H](CO)C(=O)N[C@@H](Cc1c[nH]cn1)C(=O)N[C@H](C(=O)N[C@@H](Cc1ccc(O)cc1)C(N)=O)[C@@H](C)O)C(C)C)[C@@H](C)O [Example 58, N-alpha-[(S)-4-Carboxy-4-(19-carboxynonadecanoylamino)butyryl]-Glu-[Glu14,Arg17,His35]-pramlintide] ({C20 diacid-γGlu}-EKCNTATCATQRLAEFLRHSSNNFGPILPPTNVGSHTY-NH2; disulfide 3-8 (inferred); C-terminus assumed)",>45,> 200,> 200,> 200,> 200,> 200,> 200,> 200,> 200,> 200,> 200,>45,>45,>45,> 200,> 200,> 200
"CC[C@H](C)[C@H](NC(=O)[C@@H]1CCCN1C(=O)CNC(=O)[C@H](Cc1ccccc1)NC(=O)[C@H](CC(N)=O)NC(=O)[C@H](CC(N)=O)NC(=O)[C@H](CO)NC(=O)[C@H](CO)NC(=O)[C@H](Cc1c[nH]cn1)NC(=O)[C@H](Cc1c[nH]cn1)NC(=O)[C@H](CC(C)C)NC(=O)[C@H](Cc1ccccc1)NC(=O)[C@H](CCC(=O)O)NC(=O)[C@H](C)NC(=O)[C@H](CC(C)C)NC(=O)[C@H](CCCNC(=N)N)NC(=O)[C@H](CCC(N)=O)NC(=O)[C@@H](NC(=O)[C@H](C)NC(=O)[C@@H]1CSSC[C@H](NC(=O)[C@H](CCCCN)NC(=O)CC[C@H](NC(=O)CCCCCCCCCCCCCCCCC(=O)O)C(=O)O)C(=O)N[C@@H](CC(N)=O)C(=O)N[C@@H]([C@@H](C)O)C(=O)N[C@@H](C)C(=O)N[C@@H]([C@@H](C)O)C(=O)N1)[C@@H](C)O)C(=O)N[C@@H](CC(C)C)C(=O)N1CCC[C@H]1C(=O)N1CCC[C@H]1C(=O)N[C@H](C(=O)N[C@@H](CC(N)=O)C(=O)N[C@H](C(=O)NCC(=O)N[C@@H](CO)C(=O)N[C@@H](Cc1c[nH]cn1)C(=O)N[C@H](C(=O)N[C@@H](Cc1ccc(O)cc1)C(N)=O)[C@@H](C)O)C(C)C)[C@@H](C)O [Example 59, N-alpha-[(S)-4-Carboxy-4-(17-carboxyheptadecanoylamino)butyryl]-[Glu14,His17,His35]-pramlintide] ({C18 diacid-γGlu}-KCNTATCATQRLAEFLHHSSNNFGPILPPTNVGSHTY-NH2; disulfide 2-7 (inferred))",>45,> 200,> 200,> 200,> 200,> 200,> 200,> 200,> 200,> 200,> 200,>45,>45,>45,> 200,> 200,> 200
"CC[C@H](C)[C@H](NC(=O)[C@@H]1CCCN1C(=O)CNC(=O)[C@H](Cc1ccccc1)NC(=O)[C@H](CC(N)=O)NC(=O)[C@H](CC(N)=O)NC(=O)[C@H](CO)NC(=O)[C@H](CO)NC(=O)[C@H](Cc1c[nH]cn1)NC(=O)[C@H](CCCNC(=N)N)NC(=O)[C@H](CC(C)C)NC(=O)[C@H](Cc1ccccc1)NC(=O)[C@H](CCC(=O)O)NC(=O)[C@H](C)NC(=O)[C@H](CC(C)C)NC(=O)[C@H](CCCNC(=N)N)NC(=O)[C@H](CCC(N)=O)NC(=O)[C@@H](NC(=O)[C@H](C)NC(=O)[C@@H]1CSSC[C@H](NC(=O)[C@H](CCCCN)NC(=O)CC[C@H](NC(=O)CCCCCCCCCCCCCCCCC(=O)O)C(=O)O)C(=O)N[C@@H](CC(N)=O)C(=O)N[C@@H]([C@@H](C)O)C(=O)N[C@@H](C)C(=O)N[C@@H]([C@@H](C)O)C(=O)N1)[C@@H](C)O)C(=O)N[C@@H](CC(C)C)C(=O)N1CCC[C@H]1C(=O)N1CCC[C@H]1C(=O)N[C@H](C(=O)N[C@@H](CC(N)=O)C(=O)N[C@H](C(=O)NCC(=O)N[C@@H](CO)C(=O)N[C@@H](Cc1c[nH]cn1)C(=O)N[C@H](C(=O)N[C@@H](Cc1ccc(O)cc1)C(N)=O)[C@@H](C)O)C(C)C)[C@@H](C)O [Example 61, N-alpha-[(S)-4-Carboxy-4-(17-carboxyheptadecanoylamino)butyryl]-[Glu14,Arg17,His35]-pramlintide] ({C18 diacid-γGlu}-KCNTATCATQRLAEFLRHSSNNFGPILPPTNVGSHTY-NH2; disulfide 2-7 (inferred))",>45,> 200,> 200,,81,50,48,> 200,> 200,> 200,> 200,,,>45,,,
